Data from paper PMC6934184, “Selective DNA-PKcs inhibition extends the therapeutic index of localized radiotherapy and chemotherapy” (The Journal of Clinical Investigation, 2019).

Target: T1, AMPK A1/B1/G1 (Homo sapiens, UniProt Q13131)
T1 construct: purchased Thermo Fisher Scientific (Life Technologies) SelectScreen
Assay: SelectScreen Z'LYTE
Type: biochemical
Outline: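 Percent values come from Thermo SelectScreen profiling of NU5455, combining activity and binding assays. CSF1R was run in Z'LYTE format at Km app ATP, and CAMK1 in Adapta format with ATP listed at 10.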

T1 sequence (Q13131 whole entry): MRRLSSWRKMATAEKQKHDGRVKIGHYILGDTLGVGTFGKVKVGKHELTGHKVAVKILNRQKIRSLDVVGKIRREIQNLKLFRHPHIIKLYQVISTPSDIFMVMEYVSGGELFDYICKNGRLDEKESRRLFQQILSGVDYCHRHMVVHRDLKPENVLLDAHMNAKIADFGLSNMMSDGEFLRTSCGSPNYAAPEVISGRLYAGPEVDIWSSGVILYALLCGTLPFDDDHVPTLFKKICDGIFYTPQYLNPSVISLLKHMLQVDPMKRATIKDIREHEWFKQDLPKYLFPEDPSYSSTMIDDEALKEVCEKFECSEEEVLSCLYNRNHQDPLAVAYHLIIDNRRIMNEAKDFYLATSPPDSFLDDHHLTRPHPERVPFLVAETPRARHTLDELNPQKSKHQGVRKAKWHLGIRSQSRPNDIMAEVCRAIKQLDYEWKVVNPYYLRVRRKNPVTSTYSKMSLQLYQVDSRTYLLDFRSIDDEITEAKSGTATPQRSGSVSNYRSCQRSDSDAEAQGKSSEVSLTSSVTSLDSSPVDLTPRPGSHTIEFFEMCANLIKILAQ
T1 sequence (Q9Y478 whole entry partner): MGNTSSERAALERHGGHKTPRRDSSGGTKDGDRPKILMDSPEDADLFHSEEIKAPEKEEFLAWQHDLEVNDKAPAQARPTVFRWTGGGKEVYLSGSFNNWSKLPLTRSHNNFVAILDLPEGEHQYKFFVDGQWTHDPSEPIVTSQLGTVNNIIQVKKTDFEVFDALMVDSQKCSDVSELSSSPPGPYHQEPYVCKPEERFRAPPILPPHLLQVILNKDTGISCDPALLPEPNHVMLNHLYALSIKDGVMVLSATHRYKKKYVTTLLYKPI
T1 sequence (P54619 whole entry partner): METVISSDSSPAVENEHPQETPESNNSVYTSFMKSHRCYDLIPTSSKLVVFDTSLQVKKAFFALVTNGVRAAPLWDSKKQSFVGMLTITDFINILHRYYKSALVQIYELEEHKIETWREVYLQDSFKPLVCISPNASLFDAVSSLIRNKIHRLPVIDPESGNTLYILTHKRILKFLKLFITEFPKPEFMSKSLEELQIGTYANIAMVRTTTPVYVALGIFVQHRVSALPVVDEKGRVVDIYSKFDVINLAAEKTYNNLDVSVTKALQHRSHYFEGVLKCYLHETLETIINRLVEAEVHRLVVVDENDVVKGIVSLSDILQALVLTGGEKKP

Structure (SMILES): CN(C(=O)CN1CCOCC1)c1ccc2sc3c(-c4cccc5c(=O)cc(N6CC7CCC(C6)O7)oc45)cccc3c2c1 [NU5455]
- inhibition at 1 µM: -1.2%
